# In US4684664A, “Derivatives of β-(4-isocyano-1,2,3,4-diepoxycyclopentyl) acrylic acid” (Kureha Kagaku Kogyo Kabushiki Kaisha, priority 1984, dated 1987):
# Assays:
# Format in all cases: cell-based
# [1] = system: Salmonella shottmuelleri 8006; assay: Antibacterial activity, agar-dilution MIC, organism No. 11; settings: Organism No. 11, bouillon-agar
# In short: (§1)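 Endpoint: MIC in μg/ml of culture medium. Method: agar dilution. Medium: bouillon agar.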
# [2] = system: Pseudomonas aeruginosa IFO 3445; assay: Antibacterial activity, agar-dilution MIC, organism No. 15; settings: Organism No. 15, bouillon-agar
# In short: as §1
# [3] = system: Klebsiella pneumoniae PCI-602; assay: Antibacterial activity, agar-dilution MIC, organism No. 7; settings: Organism No. 7, bouillon-agar
# In short: as §1
# [4] = system: Streptococcus pyogenes IFO 3340; assay: Antibacterial activity, agar-dilution MIC, organism No. 26; settings: Organism No. 26, bouillon-agar
# In short: as §1
# [5] = system: Staphylococcus aureus MS 353; assay: Antibacterial activity, agar-dilution MIC, organism No. 3; settings: Organism No. 3, bouillon-agar
# In short: as §1
# [6] = system: Proteus morganii IFO 3848; assay: Antibacterial activity, agar-dilution MIC, organism No. 18; settings: Organism No. 18, bouillon-agar
# In short: as §1
# [7] = system: Salmonella paratyphi-A 1015; assay: Antibacterial activity, agar-dilution MIC, organism No. 10
# In short: as §1
# [8] = system: Micrococcus luteus ATCC 9341; assay: Antibacterial activity, agar-dilution MIC, organism No. 25; settings: Organism No. 25, bouillon-agar
# In short: as §1
# Enterobacter cloacae 963 = assay: Antibacterial activity, agar-dilution MIC, organism No. 24; settings: Organism No. 24, bouillon-agar
# In short: as §1
# [9] = system: Pseudomonas aeruginosa PAO 1; assay: Antibacterial activity, agar-dilution MIC, organism No. 17; settings: Organism No. 17, bouillon-agar
# In short: as §1
# [10] = system: Salmonella enteritidis G 14; assay: Antibacterial activity, agar-dilution MIC, organism No. 12; settings: Organism No. 12, bouillon-agar
# In short: as §1
# [11] = system: Escherichia coli NIHJ-JC-2; assay: Antibacterial activity, agar-dilution MIC, organism No. 5; settings: Organism No. 5, bouillon-agar
# In short: as §1
# Proteus vulgaris OX-19 = assay: Antibacterial activity, agar-dilution MIC, organism No. 20; settings: Organism No. 20, bouillon-agar
# In short: as §1
# [12] = system: Aspergillus niger IFO 6342; assay: Antifungal activity, agar-dilution MIC, organism No. 30; settings: Organism No. 30, bouillon-agar
# In short: as §1
# [13] = system: Pseudomonas aeruginosa NCTC 10490; assay: Antibacterial activity, agar-dilution MIC, organism No. 16; settings: Organism No. 16, bouillon-agar
# In short: as §1
# [14] = system: Streptococcus pyogenes Cook; assay: Antibacterial activity, agar-dilution MIC, organism No. 4; settings: Organism No. 4, bouillon-agar
# In short: as §1
# [15] = system: Serratia marcescens IAM 1184; assay: Antibacterial activity, agar-dilution MIC, organism No. 13; settings: Organism No. 13, bouillon-agar
# In short: as §1
# [16] = system: Candida albicans IAM 4905; assay: Antifungal activity, agar-dilution MIC, organism No. 29; settings: Organism No. 29, bouillon-agar
# In short: as §1
# [17] = system: Proteus rettgeri IFO 3850; assay: Antibacterial activity, agar-dilution MIC, organism No. 22; settings: Organism No. 22, bouillon-agar
# In short: as §1
# [18] = system: Proteus mirabilis IFO 3849; assay: Antibacterial activity, agar-dilution MIC, organism No. 19; settings: Organism No. 19, bouillon-agar
# In short: as §1
# [19] = system: Mycoplasma pneumoniae IID817; assay: Antimycoplasmal activity, MIC by phenol red colour change, organism No. 28; settings: Organism No. 28, PPLO broth + 1% glucose, 37° C.
# Procedure: Mycoplasma pneumoniae IID817 was used as the test microorganism in a culture medium prepared by adding 1% of glucose to "PPLO broth (manufactured by Difco Co.) liquid culture medium" at 37° C. with phenol red as an indicator, thereby culturing the test microorganism.
# [20] = system: Staphylococcus aureus Terajima; assay: Antibacterial activity, agar-dilution MIC, organism No. 2; settings: Organism No. 2, bouillon-agar
# In short: as §1
# [21] = system: Escherichia coli K12 C600 IAM 1264; assay: Antibacterial activity, agar-dilution MIC, organism No. 6; settings: Organism No. 6, bouillon-agar
# In short: as §1
# [22] = system: Enterobacter aerogenes ATCC 13048; assay: Antibacterial activity, agar-dilution MIC, organism No. 23; settings: Organism No. 23, bouillon-agar
# In short: as §1
# Proteus vulgaris HX-19 = assay: Antibacterial activity, agar-dilution MIC, organism No. 21; settings: Organism No. 21, bouillon-agar
# In short: as §1
# [23] = system: Staphylococcus aureus FDA 209PJc-1; assay: Antibacterial activity, agar-dilution MIC, organism No. 1; settings: Organism No. 1, bouillon-agar
# In short: as §1
# Salmonella typhi 901 = assay: Antibacterial activity, agar-dilution MIC, organism No. 9
# In short: as §1
# [24] = system: Streptococcus faecium IFO 3826; assay: Antibacterial activity, agar-dilution MIC, organism No. 27; settings: Organism No. 27, bouillon-agar
# In short: as §1
# [25] = system: Bacillus subtilis ATCC 6633; assay: Antibacterial activity, agar-dilution MIC, organism No. 14; settings: Organism No. 14, bouillon-agar
# In short: as §1
# [26] = system: Salmonella typhimurium IID 971; assay: Antibacterial activity, agar-dilution MIC, organism No. 8; settings: Organism No. 8, bouillon-agar
# In short: as §1
structure (smiles),measurement,setting,value
[C-]#[N+]C12CC3(/C=C/C(=O)Nc4ccc(SC)cc4)OC3C1O2 (stereo not drawn) [compound 76],Minimum Inhibitory Concentration,[1],1.56 µg/mL
same,Minimum Inhibitory Concentration,[2],> 200 µg/mL
same,Minimum Inhibitory Concentration,[3],0.78 µg/mL
same,Minimum Inhibitory Concentration,[4],1.56 µg/mL
same,Minimum Inhibitory Concentration,[5],0.78 µg/mL
same,Minimum Inhibitory Concentration,[6],3.13 µg/mL
same,Minimum Inhibitory Concentration,"[7]; Organism No. 10, bouillon-agar",0.78 µg/mL
same,Minimum Inhibitory Concentration,[8],50 µg/mL
same,Minimum Inhibitory Concentration,Enterobacter cloacae 963,200 µg/mL
same,Minimum Inhibitory Concentration,[9],> 200 µg/mL
same,Minimum Inhibitory Concentration,[10],> 200 µg/mL
same,Minimum Inhibitory Concentration,[11],> 200 µg/mL
same,Minimum Inhibitory Concentration,Proteus vulgaris OX-19,1.56 µg/mL
same,Minimum Inhibitory Concentration,[12],100 µg/mL
same,Minimum Inhibitory Concentration,[13],> 200 µg/mL
same,Minimum Inhibitory Concentration,[14],100 µg/mL
same,Minimum Inhibitory Concentration,[15],> 200 µg/mL
same,Minimum Inhibitory Concentration,[16],25 µg/mL
same,Minimum Inhibitory Concentration,[17],100 µg/mL
same,Minimum Inhibitory Concentration,[18],> 200 µg/mL
same,Minimum Inhibitory Concentration (MIC),[19],< 0.2
same,Minimum Inhibitory Concentration,[20],1.56 µg/mL
same,Minimum Inhibitory Concentration,[21],> 200 µg/mL
same,Minimum Inhibitory Concentration,[22],> 200 µg/mL
same,Minimum Inhibitory Concentration,Proteus vulgaris HX-19,0.78 µg/mL
same,Minimum Inhibitory Concentration,[23],0.39 µg/mL
same,Minimum Inhibitory Concentration,"Salmonella typhi 901; Organism No. 9, bouillon-agar",25 µg/mL
same,Minimum Inhibitory Concentration,[24],1.56 µg/mL
same,Minimum Inhibitory Concentration,[25],12.5 µg/mL
same,Minimum Inhibitory Concentration,[26],> 200 µg/mL
[C-]#[N+]C12CC3(/C=C/C(=O)Nc4cc(C(=O)OC)ccc4OC)OC3C1O2 (stereo not drawn) [compound 77],MIC,"[1]; Salmonella, 8006, read-out: Minimum Inhibitory Concentration",> 200 µg/mL
same,MIC,"[2]; Pseudomonas aeruginosa, IFO3445, read-out: Minimum Inhibitory Concentration",> 200 µg/mL
same,MIC,"[3]; Klebsiella pneumoniae, PCI602, read-out: Minimum Inhibitory Concentration",100 µg/mL
same,MIC,"[4]; Streptococcus pyogenes, IFO3340, read-out: Minimum Inhibitory Concentration",6.25 µg/mL
same,MIC,"[5]; Staphylococcus aureus, MS353, read-out: Minimum Inhibitory Concentration",> 200 µg/mL
same,MIC,"[6]; Morganella morganii, IFO3848, read-out: Minimum Inhibitory Concentration",200 µg/mL
same,MIC,"[7]; Salmonella enterica, PARATYPHI, read-out: Minimum Inhibitory Concentration",> 200 µg/mL
same,MIC,"[8]; Micrococcus luteus, ATCC9341, read-out: Minimum Inhibitory Concentration",50 µg/mL
same,MIC,"Enterobacter cloacae 963; Enterobacter cloacae, 963, read-out: Minimum Inhibitory Concentration",> 200 µg/mL
same,MIC,"[9]; Pseudomonas aeruginosa, PAO1, read-out: Minimum Inhibitory Concentration",> 200 µg/mL
same,MIC,"[10]; Salmonella enterica, ENTERITIDIS, read-out: Minimum Inhibitory Concentration",> 200 µg/mL
same,MIC,"[11]; Escherichia coli, NIHJJC2, read-out: Minimum Inhibitory Concentration",> 200 µg/mL
same,MIC,"Proteus vulgaris OX-19; Proteus vulgaris, OX19, read-out: Minimum Inhibitory Concentration",> 200 µg/mL
same,MIC,"[12]; Aspergillus niger, IFO6342, read-out: Minimum Inhibitory Concentration",200 µg/mL
same,MIC,"[13]; Pseudomonas aeruginosa, NCTC10490, read-out: Minimum Inhibitory Concentration",> 200 µg/mL
same,MIC,"[14]; Streptococcus pyogenes, read-out: Minimum Inhibitory Concentration",> 200 µg/mL
same,MIC,"[15]; Serratia marcescens, IAM1184, read-out: Minimum Inhibitory Concentration",> 200 µg/mL
same,MIC,"[16]; Candida albicans, IAM4905, read-out: Minimum Inhibitory Concentration",> 200 µg/mL
same,MIC,"[17]; Providencia rettgeri, IFO3850, read-out: Minimum Inhibitory Concentration",200 µg/mL
same,MIC,"[18]; Proteus mirabilis, IFO3849, read-out: Minimum Inhibitory Concentration",> 200 µg/mL
same,MIC,"[19]; Mycoplasma, IID817, read-out: Minimum Inhibitory Concentration (MIC)",3.13 µg/mL
same,MIC,"[20]; Staphylococcus aureus, read-out: Minimum Inhibitory Concentration",> 200 µg/mL
same,MIC,"[21]; Escherichia coli, IAM1264, read-out: Minimum Inhibitory Concentration",> 200 µg/mL
same,MIC,"[22]; Klebsiella aerogenes, ATCC13048, read-out: Minimum Inhibitory Concentration",> 200 µg/mL
same,MIC,"Proteus vulgaris HX-19; Proteus vulgaris, HX19, read-out: Minimum Inhibitory Concentration",100 µg/mL
same,MIC,"[23]; Staphylococcus aureus, FDA209PJC1, read-out: Minimum Inhibitory Concentration",> 200 µg/mL
same,MIC,"Salmonella typhi 901; Salmonella enterica, TYPHI, read-out: Minimum Inhibitory Concentration",> 200 µg/mL
same,MIC,"[24]; Enterococcus faecium, IFO3826, read-out: Minimum Inhibitory Concentration",> 200 µg/mL
same,MIC,"[25]; Bacillus subtilis, ATCC6633, read-out: Minimum Inhibitory Concentration",100 µg/mL
same,MIC,"[26]; Salmonella enterica, read-out: Minimum Inhibitory Concentration",> 200 µg/mL
